Results taken from BindingDB's records for doi:10.1111/j.1476-5381.1995.tb15922.x (Syntex Discovery Research, 1995).

Assays:
[1] = biological target: T1, 5-hydroxytryptamine receptor 2C (Homo sapiens, UniProt P28335)
T1 sequence (P28335 whole entry): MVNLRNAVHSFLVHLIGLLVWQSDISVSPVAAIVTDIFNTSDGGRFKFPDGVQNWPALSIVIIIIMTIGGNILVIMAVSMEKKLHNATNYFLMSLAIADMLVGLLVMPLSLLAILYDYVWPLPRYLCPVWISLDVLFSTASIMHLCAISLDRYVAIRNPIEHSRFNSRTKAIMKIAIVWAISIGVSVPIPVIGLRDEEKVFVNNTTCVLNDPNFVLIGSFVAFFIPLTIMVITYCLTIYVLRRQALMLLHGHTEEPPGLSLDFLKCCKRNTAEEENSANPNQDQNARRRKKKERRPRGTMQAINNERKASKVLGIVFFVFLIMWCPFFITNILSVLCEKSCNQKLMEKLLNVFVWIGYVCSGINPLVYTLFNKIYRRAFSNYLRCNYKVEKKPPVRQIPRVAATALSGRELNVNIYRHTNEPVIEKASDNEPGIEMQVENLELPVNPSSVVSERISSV

[2] = biological target: D(2) dopamine receptor (Homo sapiens, UniProt P14416)
Chain of D(2) dopamine receptor (P14416 whole entry): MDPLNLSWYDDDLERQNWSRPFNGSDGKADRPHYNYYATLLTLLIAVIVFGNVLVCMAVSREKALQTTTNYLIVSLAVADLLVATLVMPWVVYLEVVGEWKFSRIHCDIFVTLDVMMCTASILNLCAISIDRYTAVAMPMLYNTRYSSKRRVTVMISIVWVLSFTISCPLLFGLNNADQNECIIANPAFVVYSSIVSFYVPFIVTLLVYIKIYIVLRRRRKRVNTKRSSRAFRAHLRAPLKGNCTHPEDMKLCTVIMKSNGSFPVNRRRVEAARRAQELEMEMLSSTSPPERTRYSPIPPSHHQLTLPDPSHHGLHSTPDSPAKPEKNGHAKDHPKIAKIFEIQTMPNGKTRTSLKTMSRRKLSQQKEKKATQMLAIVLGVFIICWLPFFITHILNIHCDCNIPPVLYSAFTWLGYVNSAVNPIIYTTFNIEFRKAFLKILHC

[3] = biological target: T2, Alpha-1A adrenergic receptor (Homo sapiens, UniProt P35348)
T2 sequence (P35348 whole entry): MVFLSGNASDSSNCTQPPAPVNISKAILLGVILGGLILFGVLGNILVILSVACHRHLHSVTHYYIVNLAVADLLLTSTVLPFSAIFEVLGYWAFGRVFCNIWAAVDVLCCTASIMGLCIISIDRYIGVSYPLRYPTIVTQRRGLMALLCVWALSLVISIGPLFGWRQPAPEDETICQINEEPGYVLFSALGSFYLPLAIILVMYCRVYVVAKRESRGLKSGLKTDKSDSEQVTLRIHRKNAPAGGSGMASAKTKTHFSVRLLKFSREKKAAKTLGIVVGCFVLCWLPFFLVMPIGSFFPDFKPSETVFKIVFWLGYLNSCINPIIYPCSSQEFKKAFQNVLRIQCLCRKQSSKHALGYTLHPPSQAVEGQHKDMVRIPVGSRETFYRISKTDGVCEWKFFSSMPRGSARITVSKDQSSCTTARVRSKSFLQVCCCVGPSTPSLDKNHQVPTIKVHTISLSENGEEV

[4] = biological target: D(1A) dopamine receptor (Homo sapiens, UniProt P21728)
Chain of D(1A) dopamine receptor (P21728 whole entry): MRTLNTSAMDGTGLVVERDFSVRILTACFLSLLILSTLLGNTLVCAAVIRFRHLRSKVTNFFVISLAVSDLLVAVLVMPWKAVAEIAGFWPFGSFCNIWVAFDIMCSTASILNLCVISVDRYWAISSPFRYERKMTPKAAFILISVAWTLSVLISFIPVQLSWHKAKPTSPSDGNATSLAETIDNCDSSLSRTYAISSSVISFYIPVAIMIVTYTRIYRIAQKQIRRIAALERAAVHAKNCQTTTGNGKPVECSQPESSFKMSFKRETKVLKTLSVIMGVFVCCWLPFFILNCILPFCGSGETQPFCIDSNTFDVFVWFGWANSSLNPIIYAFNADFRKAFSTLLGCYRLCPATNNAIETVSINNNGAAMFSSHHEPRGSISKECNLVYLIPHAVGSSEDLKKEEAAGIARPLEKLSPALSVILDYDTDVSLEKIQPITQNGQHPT

[5] = biological target: T3, Muscarinic acetylcholine receptor M2 (Homo sapiens, UniProt P08172)
T3 sequence (P08172 whole entry): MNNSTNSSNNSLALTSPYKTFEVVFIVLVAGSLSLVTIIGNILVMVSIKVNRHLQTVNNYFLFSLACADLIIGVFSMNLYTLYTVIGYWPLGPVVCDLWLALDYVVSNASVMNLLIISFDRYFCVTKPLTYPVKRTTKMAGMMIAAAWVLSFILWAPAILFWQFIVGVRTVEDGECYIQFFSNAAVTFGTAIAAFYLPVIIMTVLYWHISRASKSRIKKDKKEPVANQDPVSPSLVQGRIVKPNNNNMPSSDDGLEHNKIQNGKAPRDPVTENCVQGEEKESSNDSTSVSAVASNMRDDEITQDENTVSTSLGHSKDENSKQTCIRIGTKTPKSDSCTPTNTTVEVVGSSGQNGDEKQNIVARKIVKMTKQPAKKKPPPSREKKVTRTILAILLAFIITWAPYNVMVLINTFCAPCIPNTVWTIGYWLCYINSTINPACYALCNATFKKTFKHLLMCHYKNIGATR

[6] = biological target: Mu-type opioid receptor (Rattus norvegicus, UniProt P33535)
Chain of Mu-type opioid receptor (P33535 whole entry): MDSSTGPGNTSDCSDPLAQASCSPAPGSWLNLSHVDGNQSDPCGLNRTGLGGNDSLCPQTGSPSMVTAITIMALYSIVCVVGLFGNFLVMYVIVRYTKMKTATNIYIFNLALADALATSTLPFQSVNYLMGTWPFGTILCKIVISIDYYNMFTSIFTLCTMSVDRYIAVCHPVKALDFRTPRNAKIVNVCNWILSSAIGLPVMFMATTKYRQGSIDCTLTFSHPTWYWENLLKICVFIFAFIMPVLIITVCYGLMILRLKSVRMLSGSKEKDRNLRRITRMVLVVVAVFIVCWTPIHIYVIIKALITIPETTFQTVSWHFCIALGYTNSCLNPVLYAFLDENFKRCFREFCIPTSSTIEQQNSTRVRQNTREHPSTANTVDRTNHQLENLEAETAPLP

[7] = biological target: 5-hydroxytryptamine receptor 4 (Cavia porcellus, UniProt O70528)
Chain of 5-hydroxytryptamine receptor 4 (O70528 whole entry): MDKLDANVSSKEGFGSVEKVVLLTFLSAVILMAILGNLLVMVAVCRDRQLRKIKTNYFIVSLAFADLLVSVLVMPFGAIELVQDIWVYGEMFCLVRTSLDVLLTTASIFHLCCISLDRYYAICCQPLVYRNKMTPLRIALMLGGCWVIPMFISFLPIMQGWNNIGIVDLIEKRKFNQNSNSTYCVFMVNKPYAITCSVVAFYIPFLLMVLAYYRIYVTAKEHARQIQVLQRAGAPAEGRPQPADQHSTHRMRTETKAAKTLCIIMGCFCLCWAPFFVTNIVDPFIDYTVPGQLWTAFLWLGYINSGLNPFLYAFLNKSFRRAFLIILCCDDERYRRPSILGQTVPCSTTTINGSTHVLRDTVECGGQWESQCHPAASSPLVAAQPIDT

[8] = biological target: T4, Muscarinic acetylcholine receptor M1 (Homo sapiens, UniProt P11229)
T4 sequence (P11229 whole entry): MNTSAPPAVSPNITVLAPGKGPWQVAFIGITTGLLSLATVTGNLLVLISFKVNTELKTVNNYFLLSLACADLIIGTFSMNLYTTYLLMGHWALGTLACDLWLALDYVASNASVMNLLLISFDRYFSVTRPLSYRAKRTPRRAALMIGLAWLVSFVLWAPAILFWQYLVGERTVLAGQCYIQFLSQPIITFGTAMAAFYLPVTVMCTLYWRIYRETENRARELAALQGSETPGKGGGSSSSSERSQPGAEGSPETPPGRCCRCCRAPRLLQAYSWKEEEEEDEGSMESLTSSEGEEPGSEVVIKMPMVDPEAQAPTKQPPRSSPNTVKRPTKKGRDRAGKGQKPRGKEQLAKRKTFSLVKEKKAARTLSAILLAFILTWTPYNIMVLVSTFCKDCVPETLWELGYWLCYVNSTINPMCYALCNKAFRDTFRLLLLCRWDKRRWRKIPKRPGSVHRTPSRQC

[9] = biological target: T5, B1 bradykinin receptor (Homo sapiens, UniProt P46663)
T5 sequence (P46663 whole entry): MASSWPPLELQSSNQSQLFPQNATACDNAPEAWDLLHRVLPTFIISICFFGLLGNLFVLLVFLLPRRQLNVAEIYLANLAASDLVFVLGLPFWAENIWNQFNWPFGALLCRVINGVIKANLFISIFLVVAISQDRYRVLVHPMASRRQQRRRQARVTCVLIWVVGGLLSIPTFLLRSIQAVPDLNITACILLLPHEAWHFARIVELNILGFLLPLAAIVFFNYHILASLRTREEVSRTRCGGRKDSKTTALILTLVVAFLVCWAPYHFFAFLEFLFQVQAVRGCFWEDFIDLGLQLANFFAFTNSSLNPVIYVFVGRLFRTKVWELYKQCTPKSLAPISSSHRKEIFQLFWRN

[10] = biological target: T6, Type-1 angiotensin II receptor (Xenopus tropicalis, UniProt B3DLC0)
T6 sequence (B3DLC0 whole entry): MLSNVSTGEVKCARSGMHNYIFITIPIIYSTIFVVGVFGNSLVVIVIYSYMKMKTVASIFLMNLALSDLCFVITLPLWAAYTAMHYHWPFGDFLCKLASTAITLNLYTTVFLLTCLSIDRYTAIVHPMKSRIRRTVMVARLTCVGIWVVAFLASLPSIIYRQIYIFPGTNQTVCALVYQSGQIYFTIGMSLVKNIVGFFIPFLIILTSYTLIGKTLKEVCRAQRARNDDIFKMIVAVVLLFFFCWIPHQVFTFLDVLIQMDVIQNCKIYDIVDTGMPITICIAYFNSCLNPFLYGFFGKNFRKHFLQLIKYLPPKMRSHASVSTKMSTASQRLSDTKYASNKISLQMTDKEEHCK

[11] = biological target: Glutamate receptor ionotropic, NMDA 1 (Rattus norvegicus, UniProt P35439)
[12] = biological target: T7, 5-hydroxytryptamine receptor 3A (Homo sapiens, UniProt P46098)
T7 sequence (P46098 whole entry): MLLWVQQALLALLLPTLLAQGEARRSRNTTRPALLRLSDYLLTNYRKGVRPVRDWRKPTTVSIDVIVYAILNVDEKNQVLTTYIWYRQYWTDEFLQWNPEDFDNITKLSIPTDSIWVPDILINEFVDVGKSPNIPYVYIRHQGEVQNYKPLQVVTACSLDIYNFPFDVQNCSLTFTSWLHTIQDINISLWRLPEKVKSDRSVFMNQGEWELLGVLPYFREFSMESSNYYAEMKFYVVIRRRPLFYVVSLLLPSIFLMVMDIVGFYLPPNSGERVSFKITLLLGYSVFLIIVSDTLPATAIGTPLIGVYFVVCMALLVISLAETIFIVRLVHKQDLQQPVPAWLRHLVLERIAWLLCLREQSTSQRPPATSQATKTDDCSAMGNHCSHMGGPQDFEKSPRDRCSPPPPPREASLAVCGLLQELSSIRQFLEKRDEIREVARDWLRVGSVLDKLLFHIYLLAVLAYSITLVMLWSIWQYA

## COc1cc(COc2cc(N)c(Cl)cc2C(=O)CCC2CCN(CCNS(C)(=O)=O)CC2)cc(OC)c1 [CAS_167710-87-4]
[1]
  Ki: 794 nM
[2]
  Ki: 1000 nM
[3]
  Ki: 398 nM
[4]
  Ki: 1000 nM
[5]
  Ki: 1000 nM
[6]
  Ki: 1000 nM
[7]
  Ki: 0.79 nM
[8]
  Ki: 1000 nM
[9]
  Ki: > 10000 nM
[10]
  Ki: > 10000 nM
[11]
  Ki: 1000 nM
[12]
  Ki: 1000 nM
